Test results from US20250302817A1, “METHODS FOR TREATING PTEN-MUTANT TUMORS” (Icahn School of Medicine at Mount Sinai, priority 2016, published 2025).
Where two headings read alike, the source gives them in different places.

Legend:
PI3K signaling = assay: Immunoblot of pAKT in Pten KO and WT cells; format: cell-based; conditions: 50 μM A771726
Protocol: Note that here as well as in FIG. 2, H-I, a large amount of DMSO was used in each condition to match the amount of orotate needed, narrowing the growth differential normally observed between leflunomide-treated and untreated cells in the PTEN mutant setting. FIG. 8B is a bar graph and immunoblot depicting cells transfected with siRNA against DHODH. The bar graph depicts cell viability measured using annexin V and 7AAD. 0.5 μg/mL actinomycin D was a positive control for cell death. (Students t-test, *p<0.05, n=3). […] FIG. 8C is an immunoblot of DHODH in Pten KO and WT cells. FIG. 8D is an immunoblot of pAKT in Pten KO and WT cells with or without treatment with 50 μM A771726. FIG. 8E and FIG. 8F are bar graphs depicting the GI50s of cells treated with dose titrations of 5-fluorouracil or mercaptopurine, respectively (Student's t-test, p>0.05, n=3). FIG. 8G depicts the confluence of prostate cells grown in media containing full glutamine (4 mM) or no added glutamine. Data shown as means±SD.
Samples were lysed in 2× Laemelli sample buffer with mercaptoethanol and were boiled before separation by SDS-PAGE on Tris-Glycine gels (Invitrogen EC60352). Wet-transfer to PVDF (Fisher ipvh00010) was followed by blocking for 1 hour in 10% nonfat milk (Fisher M-0841) in TBST. […]

[1] = tested on: MCCL-357 and MCCL-278 cells; assay: RPA and gamma-H2AX co-staining by flow cytometry; format: cell-based, mouse
Protocol: FIG. 4A is a graph showing positively-stained cells labeled with a gamma-H2AX antibody; cells were analyzed by flow cytometry (Student's t-test, *p<0.05, n=3). […] The mean fluorescence intensity (MFI) was determined using flow cytometry (Student's t-test, *p<0.01, n=3). FIG. 4C is a series of representative photographs showing MEFs treated with 150 μM A771726 for 24 h and labeled with EdU and gamma-H2AX. Left: representative confocal microscopy images. Right: quantified EdU and gamma-H2AX colocalized foci (Student's t-test, *p<0.05, n=3). […] Left: representative confocal microscopy images. Right: quantification of the number of foci per cell (Student's t-test, p>0.05, n=6). FIG. 4E is a graph showing the percentage of cells treated with 150 μM A771726 for times indicated and labeled with antibodies to RPA and gamma-H2AX positively staining for RPA alone or both RPA and gamma-H2AX; cells were analyzed by flow cytometry (Student's t-test, *p<0.05, n=4). […] FIGS. 4G and 4H are graphs quantifying the number of chromosomal breaks and multiradial formations per haploid genome (Student's t-test, *p-values on figure, cells scored/replicate>100). […]
FIG. 10D is a bar graph showing a quantitative depiction of the percent cell area with EdU-staining from images in FIG. 4D, used to normalize foci to cell size (Student's t-test, p>0.05, not significant, n=6). […] Cells were treated with A771726 for times indicated and co-stained with antibodies to RPA and gamma-H2AX; cells were analyzed by flow cytometry (n=4). […] FIG. 10H is a bar graph showing a quantitative depiction of the percent of abnormal […] in MCCL-278 and MCCL-357 breast cells treated with 50 or 100 μM A771726 or vehicle (Student's t-test, *p<0.01). […] Pulverized chromosomes could not be quantified due to the very high number of fragments.
The FlowCellect™ Cell Cycle Checkpoint H2A.X DNA Damage Kit (Millipore FCCH12542) was used according to the instructions provided in the kit. […] (Propidium iodide was not used in this setting.) Fluorescence was measured on a Guava® flow cytometer.

[2] = cited from earlier work; for median t½: healthy volunteers and MS patients
albumin = target: T1, albumin (Homo sapiens, UniProt P02768); conditions: cited from earlier work
T1 construct: host or cells: human subjects (circulating albumin)

[3] = cited from earlier work
[4] = tested on: BCRP transporter and organic anion transporting polypeptide 1B1 and 1B3 (OATP1B1/1B3); conditions: repeated doses of teriflunomide; cited from earlier work
CYP2B6 = target: T2, CYP2B6 (Homo sapiens, UniProt P20813); conditions: in vivo; cited from earlier work
T2 construct: host or cells: human subjects, in vivo

CYP2C9 = target: T3, CYP2C9 (Homo sapiens, UniProt P11712); conditions: in vivo; cited from earlier work
T3 construct: S-warfarin (a CYP2C9 substrate); host or cells: human subjects, in vivo

CYP2D6 = target: T4, CYP2D6 (Homo sapiens, UniProt P10635); conditions: in vivo; cited from earlier work
T4 construct: metoprolol (a CYP2D6 substrate); host or cells: human subjects, in vivo

[5] = without accelerated elimination procedure

T1 sequence (P02768 25-609): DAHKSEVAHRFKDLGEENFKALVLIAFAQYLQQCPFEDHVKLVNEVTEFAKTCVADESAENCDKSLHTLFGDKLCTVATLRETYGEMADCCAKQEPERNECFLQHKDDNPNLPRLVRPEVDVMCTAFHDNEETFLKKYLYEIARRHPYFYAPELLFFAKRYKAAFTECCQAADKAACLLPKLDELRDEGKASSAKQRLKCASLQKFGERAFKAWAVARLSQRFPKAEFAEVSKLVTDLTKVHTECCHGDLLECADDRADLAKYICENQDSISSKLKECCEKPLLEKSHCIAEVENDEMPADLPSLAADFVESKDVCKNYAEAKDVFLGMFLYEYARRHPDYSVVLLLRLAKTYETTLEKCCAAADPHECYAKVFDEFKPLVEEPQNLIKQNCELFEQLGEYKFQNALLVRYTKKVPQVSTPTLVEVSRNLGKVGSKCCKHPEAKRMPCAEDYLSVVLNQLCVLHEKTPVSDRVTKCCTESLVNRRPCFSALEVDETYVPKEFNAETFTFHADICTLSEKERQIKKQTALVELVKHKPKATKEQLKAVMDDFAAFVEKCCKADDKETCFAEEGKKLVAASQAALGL
T2 sequence (P20813 whole entry): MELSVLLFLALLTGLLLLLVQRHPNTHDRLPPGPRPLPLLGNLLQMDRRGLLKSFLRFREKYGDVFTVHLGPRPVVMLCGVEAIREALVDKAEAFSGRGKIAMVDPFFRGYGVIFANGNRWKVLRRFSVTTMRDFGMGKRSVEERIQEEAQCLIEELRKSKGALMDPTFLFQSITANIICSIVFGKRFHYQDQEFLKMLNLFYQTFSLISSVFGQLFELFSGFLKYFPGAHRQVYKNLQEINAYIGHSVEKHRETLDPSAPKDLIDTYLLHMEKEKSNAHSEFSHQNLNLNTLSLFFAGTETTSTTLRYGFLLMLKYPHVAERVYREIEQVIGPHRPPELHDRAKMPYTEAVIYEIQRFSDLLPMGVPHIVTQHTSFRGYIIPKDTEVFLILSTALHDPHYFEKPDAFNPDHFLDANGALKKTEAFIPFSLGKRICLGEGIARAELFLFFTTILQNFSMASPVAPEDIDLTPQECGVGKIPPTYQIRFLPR
T3 sequence (P11712 whole entry): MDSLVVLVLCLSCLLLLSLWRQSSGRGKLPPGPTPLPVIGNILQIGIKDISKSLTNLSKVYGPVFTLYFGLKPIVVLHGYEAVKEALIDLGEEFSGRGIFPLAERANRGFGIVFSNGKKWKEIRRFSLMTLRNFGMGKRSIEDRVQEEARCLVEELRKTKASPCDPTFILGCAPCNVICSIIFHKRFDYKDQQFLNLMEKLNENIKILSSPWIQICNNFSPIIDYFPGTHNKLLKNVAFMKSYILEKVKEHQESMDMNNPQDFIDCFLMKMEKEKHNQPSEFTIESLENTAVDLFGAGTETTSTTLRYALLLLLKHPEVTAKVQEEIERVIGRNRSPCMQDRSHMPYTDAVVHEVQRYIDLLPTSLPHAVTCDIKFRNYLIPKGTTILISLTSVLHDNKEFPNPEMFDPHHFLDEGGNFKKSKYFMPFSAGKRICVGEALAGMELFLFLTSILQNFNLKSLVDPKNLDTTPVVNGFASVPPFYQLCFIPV
T4 sequence (P10635 whole entry): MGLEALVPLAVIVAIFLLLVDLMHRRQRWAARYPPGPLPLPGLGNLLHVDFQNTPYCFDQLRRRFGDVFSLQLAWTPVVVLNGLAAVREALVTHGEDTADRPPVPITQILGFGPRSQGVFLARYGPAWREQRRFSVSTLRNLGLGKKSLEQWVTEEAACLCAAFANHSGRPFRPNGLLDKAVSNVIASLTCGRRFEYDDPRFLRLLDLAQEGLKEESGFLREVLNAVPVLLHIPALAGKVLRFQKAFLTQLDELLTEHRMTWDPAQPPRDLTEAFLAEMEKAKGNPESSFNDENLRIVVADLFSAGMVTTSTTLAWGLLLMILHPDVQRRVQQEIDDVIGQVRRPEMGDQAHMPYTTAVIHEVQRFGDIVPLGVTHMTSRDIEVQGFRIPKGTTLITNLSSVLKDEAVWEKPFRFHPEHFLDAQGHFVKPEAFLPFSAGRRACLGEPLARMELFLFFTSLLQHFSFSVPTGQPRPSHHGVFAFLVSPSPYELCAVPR

C/C(O)=C(\C#N)C(=O)Nc1ccc(C(F)(F)F)cc1 [teriflunomide, (Z)-2-Cyano-3-hydroxy-but-2-enoic acid-(4trifluoromethylphenyl)-amide]
effect on PI3K signaling (pAKT immunoblot) (PI3K signaling): did not affect PI3K signaling | RPA and gamma-H2AX double-positive cells ([1]; 150 μM A771726, time course): shift toward both RPA and gamma-H2AX-positive cells in Pten^−/− MCCL-357 but not in Pten WT MCCL-278 cells | RPA signal ([1]; 150 μM A771726, regardless of PTEN genotype): increase in RPA signal | gamma-H2AX in relation to RPA staining ([1]; MCCL-357 cells treated with A771726): appeared almost exclusively in RPA-positive MCCL-357 cells | effect of food on teriflunomide pharmacokinetics ([2]; human, in vivo): does not have a clinically relevant effect | time to reach steady-state concentrations ([2]; human, in vivo): approximately 3 months | volume of distribution (Vss) ([2]; human, in vivo): 0.13 L/kg | administered dose excreted via feces ([2]; over 21 days): 37.5% | administered dose excreted via feces and urine ([2]; over 21 days): 60.1% | administered dose excreted via urine ([2]; over 21 days): 22.6% | clearance rate less in females than in males ([2]; population analysis): 23% | increase in clearance, smokers over non-smokers ([2]; population-based pharmacokinetic analysis of phase III data): 38% | median t½ ([2]; repeated doses of 7 mg): approximately 18 days | median t½ ([2]; repeated doses of 14 mg): ~19 days | estimated AUC accumulation ratio ([2]; repeated doses of 7 or 14 mg): approximately 30 | total body clearance ([2]; single IV administration): 30.5 mL/h | time to reach plasma concentrations less than 0.02 mg/L, longest (individual variations in drug clearance) [2, 5]: ≤ 2 years | time to reach plasma concentrations less than 0.02 mg/L, on average [2, 5]: 8 months | bound to albumin (albumin; healthy subjects): > 99.3% | free fraction of teriflunomide (albumin; patients with chronic renal failure): approximately doubled | free fraction of teriflunomide (albumin; patients with rheumatoid arthritis): slightly higher | protein binding linearity (albumin; therapeutic concentrations): linear | additional dose eliminated (mostly in feces) ([3]; after accelerated elimination procedure with cholestyramine): 23.1% | decrease in teriflunomide plasma concentration ([3]; end of 11 days of cholestyramine or activated charcoal): more than 98% | increase in mean rosuvastatin AUC [4]: 2.51 fold | increase in mean rosuvastatin Cmax [4]: 2.65 fold | effect on pharmacokinetics of bupropion (a CYP2B6 substrate) (CYP2B6): does not affect the pharmacokinetics | effect on pharmacokinetics of S-warfarin (a CYP2C9 substrate) (CYP2C9): does not affect the pharmacokinetics | effect on pharmacokinetics of metoprolol (a CYP2D6 substrate) (CYP2D6): does not affect the pharmacokinetics
